According to patent US20100240040A1, “METHOD FOR SCREENING FOR SELECTIVE MODULATOR OF THE NF-KB PATHWAY ACTIVATION” (INSTITUT PASTEUR, priority 2007, published 2010):
Where a SMILES comes first, the peptide text is derived from it.

Tests used:
[1] = Circular dichroism and gel filtration, self-association of peptides; format: physicochemical; conditions: peptide concentration up to 100 μM; data not shown
Description: Far-UV circular dichroism (CD) measurements were performed with an Aviv 215 spectropolarimeter with samples diluted in 10 mM NaPO4 at pH 7.
Then, unlike the LZ peptide, DR NLM peptide as well as NLM peptide are unable to self-associate. Self association of LZ peptide is described by Agou et al., 2004b.

NF-κB pathway [2] = experiment: NF-κB inhibition assay (β-galactosidase reporter) in 70Z/3-C3 cells; format: cell-based; conditions: pre-B 70Z3 lymphocytes activated with PMA, IL-1 or LPS; similar for the stimuli; read-out: IC50 of inhibition of the NF-kB pathway
Description: 4.5×10^5 70Z/3-C3 cells in 450 μl of 10% FCS-RPMI (Invitrogen) were incubated with 0-20 μM peptide BA-DR NLM or BA-NLM. After 2 h at 37° C., 200 μl of cell samples were transferred in duplicate to a 96-well micro titer plate. One well was treated for 4 h with either 15 μg/ml LPS, 20 ng/ml IL1-β or 100 ng/ml PMA. A control well was left untreated. After 4 h at 37° C., cells were centrifuged at 400×g for 5 min at room temperature, the pellets were washed three times with cold PBS (200 μl), and the cells were lysed in 100 μl of lysis buffer (25 mM tris-phosphate buffer at pH7.8 containing 8 mM MgCl2, 1 mM dithioerythreitol, 1% Triton X-100, 15% glycerol and a protease inhibitor mixture (Roche Applied Science, ref. 1836145)). The lysate was centrifuged at 1000×g for 20 min at 4° C., and supernatant was kept on ice before performing the β-galactosidase assay. β-galactosidase assays were performed on 50 μl of the supernatant and in an assay mix containing 4 μl of Galacton-star chemiluminescent substrate and 196 μl of reaction buffer (Clonetech). The activity was measured with a plate luminometer (Berthold).

AP1 pathway = experiment: AP1-luc reporter assay in Jurkat cells stimulated with PMA and ionomycin; format: cell-based, human; conditions: 5 μM peptide, T-lymphocytes
Description: (§1) Jurkat T cells (clone 20) were transiently transfected by a DEAE-dextran method with a reporter plasmid containing the luciferase under the control of a promoter inducible by the ERK and p38 pathway (SRE-luc; Courtois et al., 1997, Mol. Cell. Biol, 17:1441-1449), the NF-AT pathway or the API pathway (respectively NF-AT-luc and AP1-luc; Northrop et al., 1993, J. Biol. […]., 268:2917-2923). Briefly, cells were washed and resuspended at 10^7 cells/ml in TBS containing 0.5 mg/ml of DEAE-dextran (Pharmacia). 1 μg per 2·10^6 cells of reporter plasmid was added. After 45 min at room temperature, the cells were diluted with 10 volumes of TBS, centrifuged, and resuspended at 10^6 cells/ml in 10% FCS-RPMI. After 24 h, cells were incubated with or without 5 μM NEMO-derived peptides (BA-NLM or BA-DR NLM) for 2 h. They were stimulated or mock-stimulated with 100 ng/ml PMA and 1 μg/ml ionomycin for 5 h, and finally lysed in luciferase buffer (25 mM Tris-phosphate pH 7.8 containing 8 mM MgCl2, 1 mM DTE, 1% Triton X100, 15% glycerol). Luciferase measurement was carried out in a Berthold Luminometer.

[3] = target: T1, CC2-LZ interaction with cellular polyubiquitinylated proteins (Mus musculus, UniProt O88522); experiment: Pull-down of polyubiquitinylated proteins from JM4.5.2 extracts with biotinylated CC2-LZ, anti-ubiquitin Western blot; format: biochemical; conditions: 20 μM peptide, extracts of TNF-α stimulated JM4.5.2 cells
T1 construct: made in house; host or cells: chemical synthesis (bait); crude extract of JM4.5.2 cells with or without TNFα (partners)
Description: 24·10^7 JM4.5.2 cells were stimulated or not with 10 ng/ml of TNFα for 10 minutes at 37° C., washed twice with cold PBS and lysed in 900 μl of lysis buffer containing a protease inhibitor mixture as indicated in Example 1.D. Lysates were clarified at 15 000×g at 4° C. for 30 min. 150 μl of proteins were incubated 2 h at 4° C. with 150 μl of streptavidin magnetic beads (MagPrep®, Novagen) pre-incubated 1 h at 4° C. with 10 μg of biotynilated-CC2-LZ and with or without 20 μM of peptides (BA-NLM or BA-DR NLM). Beads were washed 4 times in buffer A (10 mM Hepes pH 7.5, 150 mM NaCl, 8 mM MgCl2, 10% glycerol, 0.1 mM DDM and 1 mM DTE) and resuspended in 30 μl of laemmli buffer containing 6 M Urea. Samples were analysed by Western blotting using anti-ubiquitin antibodies (Sigma) as well as anti-NDPK-B antibodies for loading controls.
Thus, the Inventors examined whether DR NLM impedes the interaction between NEMO and the K63 polyubiquitin chains. To this end, they developed a pull down assay which uses the a peptide comprising the CC2 and the LZ domains of NEMO as a bait to pull down the polyubiquitinylated proteins as described in Example 1.J and depicted in FIG. 7A. […] After extensive washing of beads, all mono and polyubiquitinylated proteins bound to CC2-LZ were analysed by Western blot using anti-ubiquitin antibody (Sigma).

[4] = target: T2, Lys63-linked polyubiquitin chains (Homo sapiens, UniProt P0CG47); experiment: In vitro binding assay by fluorescence polarization to polyubiquitin chains; conditions: tag-free peptide
T2 construct: the Lys63-linked polyubiquitin chains; purchased Boston Biochem

NF-κB pathway [5] = conditions: reported in WO 2005/027959; cited from earlier work
ERK and p38 pathway = experiment: SRE-luc reporter assay in Jurkat cells stimulated with PMA and ionomycin; format: cell-based, human; conditions: 5 μM peptide, T-lymphocytes
Description: as §1

T1 sequence (O88522 253-336): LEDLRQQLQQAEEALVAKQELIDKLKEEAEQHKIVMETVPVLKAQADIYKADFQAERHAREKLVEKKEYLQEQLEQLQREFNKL

CC[C@H](C)[C@H](NC(=O)[C@H](CC(=O)O)NC(=O)[C@H](C)NC(=O)[C@H](CCC(N)=O)NC(=O)[C@H](C)NC(=O)[C@H](CCCCN)NC(=O)[C@H](CC(C)C)NC(C)=O)C(=O)N[C@@H](Cc1ccc(O)cc1)C(=O)N[C@@H](CCCCN)C(=O)N[C@@H](C)C(=O)N[C@@H](CCCNC(=N)N)C(=O)N[C@@H](Cc1ccccc1)C(=O)N[C@@H](CCC(N)=O)C(=O)N[C@@H](C)C(=O)N[C@@H](CCC(=O)O)C(=O)N[C@@H](CCCNC(=N)N)C(=O)N[C@@H](Cc1c[nH]cn1)C(=O)N[C@@H](C)C(=O)N[C@@H](CCCNC(=N)N)C(=O)N[C@@H](CCC(=O)O)C(=O)N[C@@H](CCCCN)C(N)=O [DR NLM] (Ac-LKAQADIYKARFQAERHAREK-NH2; N-terminus and C-terminus assumed)
oligomeric state / self-association [1]: behave as monomer | IC50 (NF-κB pathway [2]): 0.9 µM | effect on AP1 pathway (AP1 pathway): does not abrogate | inhibition of CC2-LZ interaction with polyubiquitinylated proteins [3]: abolishes the CC2-LZ interaction with the cellular polyubiquitinylated proteins | cooperativity index (Hill coefficient) n [4]: 1 | Kd ([4]; read-out: dissociation constant for Lys63-linked polyubiquitin chains): 250 µM | inhibition of NF-κB activation (NF-κB pathway [5]): inhibit NF-κB activation | effect on ERK and p38 pathways (ERK and p38 pathway): does not abrogate
